From patent publication US20160281050A1, “METHODS FOR TREATING A CULTURE OF HAEMATOCOCCUS PLUVIALIS FOR CONTAMINATION USING SALT AND HYDROGEN PEROXIDE” (HELIAE DEVELOPMENT LLC, priority 2015, published 2016)
Where two headings read alike, the source gives them in different places.

Tests used:
[1] = tested on: Green swimmer cells of Haematococcus pluvialis (Strain 2)
Procedure: (§1) The calculated concentrations of the hydrogen peroxide doses tested were 0.0105, 0.0140, 0.0175, 0.0210, and 0.0245 mL/L. The amount of cell lysis was quantified using visual observation under a microscope after 24, 48, and 72 hours.

[2] = tested on: red cyst cells of Haematococcus pluvialis (Strain 2)
Procedure: as §1

[3] = tested on: chytrids; conditions: for % Chytrids Infection: 0.0105 mL/L every 6 hours
From the text: Three 3,000 L open raceway pond bioreactor #'s MP1, MP2, & MP3 with paddlewheel mixing disposed outdoors were inoculated with cultures of green swimmer Haematococcus pluvialis (Strain 2) cells from outdoor reactor #2310 at a dilution ratio of 1 part culture samples to 3 parts reddening media containing 1 ppt salt (NaCl). […] MP2 was not treated with hydrogen peroxide to serve as an untreated control for comparison purposes. […] After hydrogen peroxide treatments began, the percent of the cultures infected with chytrids, percent of carotenoids by UV method, and cell dry weight (g/L) were quantified daily.

[4] = tested on: Haematococcus pluvialis (Strain 1) green swimmer cells; experiment: Commercial scale cultures: lysis, carotenoid content (UV), average growth rate (Example 5); conditions: for Maximum % Lysis of Culture: 0.007 mL/L every six hours
From the text: The findings from the flask test samples were then applied to commercial scale cultures of Haematococcus pluvialis (Strain 1) containing green swimmer cells that were transferred from open raceway pond bioreactor #2310 disposed in a greenhouse, using paddlewheel mixing, and operating in conditions: reactor volume of 55,000 L; Daily PAR of 42 mol m^−2 d^−1; pH of 7.5; and paddlewheel speed of 40%; to open raceway pond bioreactor #2420 disposed in a greenhouse, using paddlewheel mixing, operating in conditions: reactor volume of 140,000 L; Daily PAR of 40 mol m^−2 d^−1; pH of 7.3; and paddlewheel speed of 70%. Similarly, the culture in bioreactor #2320, operating in conditions: reactor volume of 60,000 L; Daily PAR of 42 mol m^−2 d^−1; pH of 7.5; and paddlewheel speed of 40%; was transferred by being split into pond bioreactors #2410 and 2430 operating in conditions: reactor volume of 150,000 L; Daily PAR of 40 mol m^−2 d^−1; pH of 7.3; and paddlewheel speed of 70%. […] Lysis was quantified upon harvest of the culture through visual observation of samples under a microscope. Carotenoid content of the cells was measured by UV method upon harvest, and the average growth rate of the culture was calculated based on periodic dry weight samples. The results were compared to data from previous culture runs in the same bioreactors or bioreactors with similar operating conditions during the same month (September 2014) at the same location.

[5] = 0.0140 mL/L three times per day, 24 h
[6] = 0.0140 mL/L three times per day, 48 h
[7] = 0.0140 mL/L three times per day, 72 h
[8] = 0.0175 mL/L three times per day, 24 h
[9] = 0.0175 mL/L three times per day, 48 h
[10] = 0.0175 mL/L three times per day, 72 h
[11] = 0.0210 mL/L three times per day, 24 h
[12] = 0.0210 mL/L three times per day, 48 h
[13] = 0.0210 mL/L three times per day, 72 h
[14] = 0.0245 mL/L three times per day, 24 h
[15] = 0.0245 mL/L three times per day, 48 h
[16] = 0.0245 mL/L three times per day, 72 h

**Q.** Which results are given for hydrogen peroxide [H2O2]?
**A.** % Cell lysis (±1SE) ([1]; 0.0105 mL/L three times per day, 24 h): 3.3% ± 1.7%; % Cell lysis (±1SE) ([1]; 0.0105 mL/L three times per day, 48 h): 5.0% ± 1.7%; % Cell lysis (±1SE) ([1]; 0.0105 mL/L three times per day, 72 h): 3.3% ± 0.0%; cell lysis level ([1]; 0.0105 mL/L, for at least 72 hours): below 10%; % Cell lysis (±1SE) [1, 5]: 4.2% ± 0.8%; % Cell lysis (±1SE) [1, 6]: 5.8% ± 2.5%; % Cell lysis (±1SE) [1, 7]: 9.2% ± 4.2%; % Cell lysis (±1SE) [1, 8]: 2.5% ± 0.8%; % Cell lysis (±1SE) [1, 9]: 9.2% ± 2.5%; % Cell lysis (±1SE) [1, 10]: 13.3% ± 3.3%; % Cell lysis (±1SE) [1, 11]: 4.2% ± 2.5%; % Cell lysis (±1SE) [1, 12]: 6.7% ± 1.7%; % Cell lysis (±1SE) [1, 13]: 20.0% ± 3.3%; cell lysis level ([1]; 0.0210 mL/L, for 48 hours): below 10%; % Cell lysis (±1SE) [1, 14]: 15.0% ± 0.0%; % Cell lysis (±1SE) [1, 15]: 22.5% ± 0.8%; % Cell lysis (±1SE) [1, 16]: 27.5% ± 2.5%; % Cell lysis (±1SE) [2, 5]: 1.7% ± 1.0%; % Cell lysis (±1SE) [2, 6]: 0.8% ± 0.8%; % Cell lysis (±1SE) [2, 7]: 3.3% ± 0.0%; % Cell lysis (±1SE) ([2]; 0.0140 mL/L three times per day, 96 h): 3.3% ± 1.7%; % Cell lysis (±1SE) [2, 8]: 1.1% ± 0.6%; % Cell lysis (±1SE) [2, 9]: 3.3% ± 1.7%; % Cell lysis (±1SE) [2, 10]: 5.8% ± 5.8%; % Cell lysis (±1SE) ([2]; 0.0175 mL/L three times per day, 96 h): 5.8% ± 2.5%; % Cell lysis (±1SE) [2, 11]: 3.9% ± 2.0%; % Cell lysis (±1SE) [2, 12]: 0.8% ± 0.8%; % Cell lysis (±1SE) [2, 13]: 1.7% ± 0.0%; % Cell lysis (±1SE) ([2]; 0.0210 mL/L three times per day, 96 h): 18.3% ± 1.7%; % Cell lysis (±1SE) [2, 14]: 3.9% ± 0.6%; % Cell lysis (±1SE) [2, 15]: 5.0% ± 1.7%; % Cell lysis (±1SE) [2, 16]: 9.2% ± 0.8%; % Cell lysis (±1SE) ([2]; 0.0245 mL/L three times per day, 96 h): 51.7% ± 5.0%; cell lysis level ([2]; dosages at or above 0.0175 mL/L, after 48-96 hours): above 10%; cell lysis level ([2]; dosages below 0.0175 mL/L, for at least 96 hours): below 10%; % Chytrids Infection ([3]; MP1, initial infection 20%, day 7): 23.3 ± 5.8%; % Chytrids Infection ([3]; MP1, initial infection 20%, day 8): 20.0 ± 5.0%; % Chytrids Infection ([3]; MP1, initial infection 20%, day 9): 30.0 ± 10.0%; % Chytrids Infection ([3]; MP1, initial infection 20%, day 10): 26.7 ± 2.9%; % Chytrids Infection ([3]; MP1, initial infection 20%, day 11): 61.7 ± 24.7%; % Chytrids Infection ([3]; MP1, initial infection 20%, day 12): 63.3 ± 16.1%; % Chytrids Infection ([3]; MP1, initial infection 20%, day 13): 73.3 ± 7.6%; % Chytrids Infection ([3]; MP1, initial infection 20%, day 14): 76.7 ± 17.6%; % Chytrids Infection ([3]; MP3, initial infection less than 5%, day 7): 1.7 ± 2.9%; % Chytrids Infection ([3]; MP3, initial infection less than 5%, day 8): 0.0 ± 0.0%; % Chytrids Infection ([3]; MP3, initial infection less than 5%, day 9): 1.7 ± 2.9%; % Chytrids Infection ([3]; MP3, initial infection less than 5%, day 10): 0.0 ± 0.0%; % Chytrids Infection ([3]; MP3, initial infection less than 5%, day 11): 0.0 ± 0.0%; % Chytrids Infection ([3]; MP3, initial infection less than 5%, day 12): 0.0 ± 0.0%; % Chytrids Infection ([3]; MP3, initial infection less than 5%, day 13): 3.3 ± 2.9%; % Chytrids Infection ([3]; MP3, initial infection less than 5%, day 14): 0.0 ± 0.0%; chytrids infection level ([3]; MP3 culture, below 5% when the treatments started, 1 ppt salt): below 5%; Maximum % Lysis of Culture ([4]; Bioreactor 2410): 70%; Maximum % Lysis of Culture ([4]; Bioreactor 2420): 20%; Maximum % Lysis of Culture ([4]; Bioreactor 2430): 35%; reduction of the level of cell lysis ([4]; at least 0.007 mL/L every 6 hours, flask tests and commercial scale cultures together): at least 60%; lysis ([4]; two of the commercial scale cultures treated with hydrogen peroxide): 20-35%
